Assay [1] concerns Ba/F3 CD74-ROS1 non mutant. The assay is described as follows: Antiproliferation assay (Alamar Blue, 72 h). It counts as cell-based, mouse. The settings on record: Mus musculus, BaF3, 72 h, Ba/F3 cells, cell growth inhibition. An excerpt:
(§1) To assess targeted degradation of ROS1 fusion proteins, we first established a mouse pro-B cell line Ba/F3 as a model expressing the CD74-ROS1 oncogene or CD74-ROS1 with clinically observed secondary/tertiary mutations. The Ba/F3 cell line is dependent on interleukin-3 for survival and proliferation. Upon transduction of oncogenic ROS1, Ba/F3 cells become independent of interleukin-3 but dependent on the transduced driver gene.
(§2) Ba/F3 immortalized murine bone marrow–derived pro-B cells were obtained from Creative Biogene (Shirley, NY) and cultured in RPMI supplemented with 10% FBS and IL3 (0.5 ng/mL). Ba/F3 cells expressing ROS1 variants were maintained in RPMI supplemented with 10% FBS and puromycin (0.7 mg/mL). […] Each compound was dissolved in DMSO and serially diluted in RPMI for cell culture experiments.
(§3) To assess the 72 h effect of drug treatment on cell proliferation, 2000 to 3000 cells were plated in replicates of three in 96-well plates. The plates were placed in an incubator at 37 °C, 5% CO2 for 72 h. Following drug treatments, the cells were incubated with the Alamar Blue Assay reagent (BioRad), 5 μL each well for 4 h at 37 °C and 5% CO2. Luminescence was measured on a multiplate reader and analyzed. […] IC50 values were determined using a nonlinear regression model with a sigmoidal dose response in GraphPad. The data were collected based on triplicate experiments, and presented as mean ± SD.
(§4) The resulting virus was used to infect Ba/F3 cells. After retroviral infection, Ba/F3 cells were selected by incubation with puromycin (0.7 mg/mL) for 2 weeks. For Ba/F3 cells infected by the CD74–ROS1 variants, IL3 was withdrawn from the culture medium at least 2 weeks before the experiments.
(In general: The colour change of resazurin is a common sign of viable cells or microbes.)

Another assay deals with ROS1. Briefly: ROS1 degradation in Ba/F3 cells (WES immunoblotting). In kind it is cell-based. The settings on record: for DC50: concentration needed to reduce ROS1 protein by 50%, Ba/F3 cells; for Dmax (%) (ROS1): maximal degradation of ROS1 in Ba/F3 cells. On the procedure:
Protein levels were analyzed using a WES instrument according to the WES User Guide from ProteinSimple in duplicate experiments. The samples were mixed with the fluorescent 5 master mix (ProteinSimple) and then heated at 95 °C for 5 min. Boiled samples, biotinylated protein ladder, antibody diluent, Streptavidin-HRP, primary antibodies, ProteinSimple horseradish peroxidase conjugated antirabbit or antimouse secondary antibodies, luminol-peroxide, and wash buffer were loaded into the WES plate (Wes 12–230 kDa Prefilled Plates with Split Buffer, ProteinSimple). The plates and capillary cartridges were loaded into the WES instrument, and protein separation, antibody incubation, and imaging were performed according to manufacturer’s instructions. Compass software (ProteinSimple) was used to acquire the data and to generate the virtual blot image reconstruction and chemiluminescence signal intensity electropherograms. […] Protein levels are expressed as the AUC of the peak chemiluminescence intensity. Antibodies against phospho-ROS1(Tyr2274/2334) (E8F5J), ROS1 (D4D6(R)) were obtained from Cell Signaling Technology.
(Immunoblotting shows a protein as a band on a membrane.)

For the next assay, the system named is Ba/F3 ROS1-G2032R. Briefly: Antiproliferation assay. The settings on record: Mus musculus, BaF3; Ba/F3 cells, cell growth inhibition, 72 h. It counts as cell-based, mouse.
Text: as §1, §2, §3, §4

A word on the IC50: it is the midpoint of a concentration-inhibition curve. High values mean weaker potency, low ones greater potency. For orientation: DC50 means the concentration at which degradation of the target reaches its halfway point. A high value points to a less potent degrader.

For `Cc1cc(Nc2ncc(Cl)c(Nc3ccccc3S(=O)(=O)C(C)C)n2)c(OC(C)C)cc1C1CCN(C2CCN(CC3CN(c4ccc5c(c4)C(=O)N(C4CCC(=O)NC4=O)C5=O)C3)CC2)CC1` (stereo not shown) [8n, 5-(3-((4-(4-((5-Chloro-4-((2-(isopropylsulfonyl)phenyl)amino)pyrimidin-2-yl)amino)-5-isopropoxy-2-methylphenyl)-[1,4′-bipiperidin]-1′-yl)methyl)azetidin-1-yl)-2-(2,6-dioxopiperidin-3-yl)isoindoline-1,3-dione], the IC50 in assay [1] is 713 ± 84 nM. Moreover, in the assay with ROS1, the DC50 is 586 nM and the “Dmax (%) (ROS1)” value is recorded as 63%. In the assay with Ba/F3 ROS1-G2032R, this compound returned an IC50 of 1150 ± 466 nM.

With `Cc1cc(Nc2ncc(Cl)c(Nc3ccccc3S(=O)(=O)C(C)C)n2)c(OC(C)C)cc1C1CCN(C2CN(C3CN(c4ccc5c(c4)C(=O)N(C4CCC(=O)NC4=O)C5=O)C3)C2)CC1` (stereo not shown) [8o, 5-(3-(4-(4-((5-Chloro-4-((2-(isopropylsulfonyl)phenyl)amino)pyrimidin-2-yl)amino)-5-isopropoxy-2-methylphenyl)piperidin-1-yl)-[1,3′-biazetidin]-1′-yl)-2-(2,6-dioxopiperidin-3-yl)isoindoline-1,3-dione], half-maximal inhibition in assay [1] (IC50) was put at 116 ± 21 nM. In the assay on ROS1, the DC50 is 122 nM and the “Dmax (%) (ROS1)” value is reported as 65%. In the assay with Ba/F3 ROS1-G2032R, the IC50 is more than 10000 nM.

On to `Cc1cc(Nc2ncc(Cl)c(Nc3ccccc3S(=O)(=O)C(C)C)n2)c(OC(C)C)cc1C1CCN(C2CN(CC3CN(c4ccc5c(c4)C(=O)N(C4CCC(=O)NC4=O)C5=O)C3)C2)CC1` (stereo not shown) [8q, 5-(3-((3-(4-(4-((5-Chloro-4-((2-(isopropylsulfonyl)phenyl)amino)pyrimidin-2-yl)amino)-5-isopropoxy-2-methylphenyl)piperidin-1-yl)azetidin-1-yl)methyl)azetidin-1-yl)-2-(2,6-dioxopiperidin-3-yl)isoindoline-1,3-dione], for which the IC50 is 66 ± 6 nM in assay [1] and 6120 ± 4070 nM in the assay on Ba/F3 ROS1-G2032R. The compound further yielded a 50% degradation concentration (DC50) in the assay with ROS1 of 57 nM. In the assay on ROS1, the “Dmax (%) (ROS1)” value came to 85%.

Compound `Cc1cc(Nc2ncc(Cl)c(Nc3ccccc3S(=O)(=O)C(C)C)n2)c(OC(C)C)cc1C1CCN(C2CN(CC3CCN(c4ccc5c(c4)C(=O)N(C4CCC(=O)NC4=O)C5=O)CC3)C2)CC1` (stereo not shown) [8r, 5-(4-((3-(4-(4-((5-Chloro-4-((2-(isopropylsulfonyl)phenyl)amino)pyrimidin-2-yl)amino)-5-isopropoxy-2-methylphenyl)piperidin-1-yl)azetidin-1-yl)methyl)piperidin-1-yl)-2-(2,6-dioxopiperidin-3-yl)isoindoline-1,3-dione] registered an IC50 in assay [1] of 72 ± 3 nM. In addition, in the assay with ROS1, the DC50 amounted to 77 nM and the “Dmax (%) (ROS1)” value was 91%. Further, the half-maximal inhibitory concentration (IC50) in the assay with Ba/F3 ROS1-G2032R was more than 10000 nM.

In the case of `Cc1cc(Nc2ncc(Cl)c(Nc3ccccc3S(=O)(=O)C(C)C)n2)c(OC(C)C)cc1C1CCN(C2CCN(C3CCN(c4ccc5c(c4)C(=O)N(C4CCC(=O)NC4=O)C5=O)CC3)CC2)CC1` (stereo not shown) [8s, 5-(4-(4-((5-Chloro-4-((2-(isopropylsulfonyl)phenyl)amino)pyrimidin-2-yl)amino)-5-isopropoxy-2-methylphenyl)-[1,4′:1′,4″-terpiperidin]-1″-yl)-2-(2,6-dioxopiperidin-3-yl)isoindoline-1,3-dione], in assay [1], it took 106 ± 9 nM to reach half-maximal inhibition (IC50). In the assay on ROS1, it took 120 nM to reach half-maximal degradation (DC50) and the “Dmax (%) (ROS1)” value stood at 82%. The same compound yielded a half-inhibitory concentration (IC50) with Ba/F3 ROS1-G2032R of more than 10000 nM.

Take `Cc1cc(Nc2ncc(Cl)c(Nc3ccccc3S(=O)(=O)C(C)C)n2)c(OC(C)C)cc1C1CCN(C2CCN(CC3CCN(c4ccc5c(c4)C(=O)N(C4CCC(=O)NC4=O)C5=O)CC3)CC2)CC1` (stereo not shown) [8t, 5-(4-((4-(4-((5-Chloro-4-((2-(isopropylsulfonyl)phenyl)amino)pyrimidin-2-yl)amino)-5-isopropoxy-2-methylphenyl)-[1,4′-bipiperidin]-1′-yl)methyl)piperidin-1-yl)-2-(2,6-dioxopiperidin-3-yl)isoindoline-1,3-dione]: the half-maximal inhibitory concentration (IC50) in assay [1] came to 147 ± 28 nM. In addition, in the assay with ROS1, half-maximal degradation (DC50) was put at 155 nM and the “Dmax (%) (ROS1)” value is 81%. Besides, in the assay on Ba/F3 ROS1-G2032R, the IC50 is more than 10000 nM.

`COc1cc(N2CCN(c3ccc4c(c3)C(=O)N(C3CCC(=O)NC3=O)C4=O)CC2)ccc1Nc1ncc(Cl)c(Nc2ccccc2P(C)(C)=O)n1` (stereo not shown) [9a, 5-(4-(4-((5-Chloro-4-((2-(dimethylphosphoryl)phenyl)amino)pyrimidin-2-yl)amino)-3-methoxyphenyl)piperazin-1-yl)-2-(2,6-dioxopiperidin-3-yl)isoindoline-1,3-dione] returned an IC50 in assay [1] of 112 ± 17 nM. Moreover, in the assay with ROS1, the DC50 came out at 133 nM and the “Dmax (%) (ROS1)” value came to 68%. In the assay with Ba/F3 ROS1-G2032R, the IC50 worked out at 251 ± 125 nM.

On to `COc1cc(N2CCC(N3CCN(C4CN(c5ccc6c(c5)C(=O)N(C5CCC(=O)NC5=O)C6=O)C4)CC3)CC2)ccc1Nc1ncc(Cl)c(Nc2ccccc2P(C)(C)=O)n1` (stereo not shown) [9d, 5-(3-(4-(1-(4-((5-Chloro-4-((2-(dimethylphosphoryl)phenyl)amino)pyrimidin-2-yl)amino)-3-methoxyphenyl)piperidin-4-yl)piperazin-1-yl)azetidin-1-yl)-2-(2,6-dioxopiperidin-3-yl)isoindoline-1,3-dione], for which the IC50 in assay [1] was found to be 61 ± 5 nM; in the assay on Ba/F3 ROS1-G2032R, 491 ± 48 nM. In the assay on ROS1, this compound showed a DC50 of 75 nM. Besides, the “Dmax (%) (ROS1)” value in the assay with ROS1 is given as 90%.

`COc1cc(C2CCN(C3CCN(CC4CCN(c5ccc6c(c5)C(=O)N(C5CCC(=O)NC5=O)C6=O)CC4)CC3)CC2)ccc1Nc1ncc(Cl)c(Nc2ccccc2P(C)(C)=O)n1` (stereo not shown) [9g, 5-(4-((4-(4-((5-Chloro-4-((2-(dimethylphosphoryl)phenyl)amino)pyrimidin-2-yl)amino)-3-methoxyphenyl)-[1,4′-bipiperidin]-1′-yl)methyl)piperidin-1-yl)-2-(2,6-dioxopiperidin-3-yl)isoindoline-1,3-dione] registered an IC50 in assay [1] of 7.1 ± 0.9 nM. Further, in the assay on ROS1, the 50% degradation concentration (DC50) was found to be 11 nM and the “Dmax (%) (ROS1)” value worked out at 88%. In the assay on Ba/F3 ROS1-G2032R, this compound displayed an IC50 of 221 ± 26 nM.

With `COc1cc(N2CCN(C3CCN(CC4CCN(c5ccc6c(c5)C(=O)N(C5CCC(=O)NC5=O)C6=O)CC4)CC3)CC2)ccc1Nc1ncc(Cl)c(Nc2ccccc2P(C)(C)=O)n1` (stereo not shown) [9h, 5-(4-((4-(4-(4-((5-Chloro-4-((2-(dimethylphosphoryl)phenyl)amino)pyrimidin-2-yl)amino)-3-methoxyphenyl)piperazin-1-yl)piperidin-1-yl)methyl)piperidin-1-yl)-2-(2,6-dioxopiperidin-3-yl)isoindoline-1,3-dione], the 50% inhibitory concentration (IC50) in assay [1] is 21 ± 8 nM; with Ba/F3 ROS1-G2032R, 115 ± 12 nM. The compound further gave a DC50 in the assay on ROS1 of 34 nM. Also, the “Dmax (%) (ROS1)” value with ROS1 is on record as 85%.

In the case of `COc1cc(N2CCN(c3ccc4c(c3)CN(C3CCC(=O)NC3=O)C4=O)CC2)ccc1Nc1ncc(Cl)c(Nc2ccccc2P(C)(C)=O)n1` (stereo not shown) [9l, 3-(5-(4-(4-((5-Chloro-4-((2-(dimethylphosphoryl)phenyl)amino)pyrimidin-2-yl)amino)-3-methoxyphenyl)piperazin-1-yl)-1-oxoisoindolin-2-yl)piperidine-2,6-dione], the half-maximal inhibitory concentration (IC50) turned out to be 6.6 ± 0.4 nM in assay [1] and 427 ± 32 nM with Ba/F3 ROS1-G2032R. Further, the half-maximal degradation concentration (DC50) in the assay on ROS1 came out at 8 nM. In addition, the “Dmax (%) (ROS1)” value in the assay with ROS1 is reported as 92%.

Compound `COc1cc(N2CCC(N3CCN(CC4CN(c5ccc6c(c5)CN(C5CCC(=O)NC5=O)C6=O)C4)CC3)CC2)ccc1Nc1ncc(Cl)c(Nc2ccccc2P(C)(C)=O)n1` (stereo not shown) [9p, 3-(5-(3-((4-(1-(4-((5-Chloro-4-((2-(dimethylphosphoryl)phenyl)amino)pyrimidin-2-yl)amino)-3-methoxyphenyl)piperidin-4-yl)piperazin-1-yl)methyl)azetidin-1-yl)-1-oxoisoindolin-2-yl)piperidine-2,6-dione] displayed a half-maximal inhibitory concentration (IC50) in assay [1] of 15.3 ± 4.5 nM. For the same compound, in the assay on ROS1, the DC50 was 20 nM and the “Dmax (%) (ROS1)” value was 94%. Further, the IC50 in the assay with Ba/F3 ROS1-G2032R stood at 158 ± 81 nM.

Take `COc1cc(N2CCC(N3CCN(CC4CCN(c5ccc(NC6CCC(=O)NC6=O)cc5)CC4)CC3)CC2)ccc1Nc1ncc(Cl)c(Nc2ccccc2P(C)(C)=O)n1` (stereo not shown) [9q, 3-((4-(4-((4-(1-(4-((5-Chloro-4-((2-(dimethylphosphoryl)phenyl)amino)pyrimidin-2-yl)amino)-3-methoxyphenyl)piperidin-4-yl)piperazin-1-yl)methyl)piperidin-1-yl)phenyl)amino)piperidine-2,6-dione]: the IC50 in assay [1] was 102 ± 24 nM; with Ba/F3 ROS1-G2032R, more than 10000 nM. The DC50 in the assay on ROS1 worked out at 145 nM. Besides, the “Dmax (%) (ROS1)” value with ROS1 worked out at 33%.

(Values after article PMC11513893, “Discovery of Oral Degraders of the ROS1 Fusion Protein with Potent Activity against Secondary Resistance Mutations” (Journal of Medicinal Chemistry, 2024).)
